# Test results as given in US7138270B2, “Assay device and method for chemical or biological screening” (University College Cork—National University of Ireland, Cork, priority 2002, dated 2006).
# Test system: S. pombe yeast cells
# Test: Respirometric assessment of viability of S. pombe yeast cells treated with toxicant (oxygen uptake, phosphorescent oxygen probe)
# Type: cell-based
# Settings: S. pombe cells incubated with different concentrations of toxicant, aliquots at different time intervals; FIG. 5
# Method: A solid-state oxygen probe comprising a thin film polymer coating of the phosphorescent dye platinum(II)-tetrakis(pentafluorophenyl)porphine (PtTFPP) and polycarbonate was used with the device 1 shown in FIG. 1. One milligram of PtTFPP is dissolved in 0.01% (w/v) solution of polycarbonate (M.ca. 60 000) in chloroform. One microlitre aliquotes of this solution were dispensed to the microwells and allowed to air dry for 10 minutes to produce thin film phosphorescent oxygen-sensitive coating inside the microwells.
# S. pombe yeast cells were incubated with different concentrations of cadmium nitrate toxicant. Two μl aliquots were taken from each sample at different time intervals, and placed in the wells of microwell chambers coated with a PtTFPP-polycarbonate solid-state oxygen probe. The respiration profiles of samples were monitored as described in Example 1 above, together with a control sample containing the same concentration of test cells, but without the presence of a toxicant. The levels of oxygen uptake by each sample is evaluated on the basis of time profiles of the phosphorescent signal (initial slopes), compared to those obtained in the control sample. […] This could be extended to compare cells growing in the presence of necessary growth factors, undergoing survival factor deprivation, or undergoing apoptosis.
structure (smiles),measurement,value
O=[N+]([O-])[O-].O=[N+]([O-])[O-].[Cd+2] [cadmium nitrate],"oxygen uptake / initial slope of phosphorescent signal time profile, compared to control sample (cell viability)",decrease in the initial slope and oxygen uptake with respect to control sample
